PubChem BioAssay (NCI)
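Briefly, cells in 96-well plates were exposed to five compound concentrations for 48 h, and endpoints were estimated by linear interpolation. Definition used: TGI = concentration required for complete inhibition of growth.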

Columns and labels:
Assay in all cases: NCI-60 cell line screen, 48 h
U251 CNS = system: U251 CNS
KM12 colon = system: KM12 colon
NCI-H226 lung = system: NCI-H226 lung
HT29 colon = system: HT29 colon
SNB-19 CNS = system: SNB-19 CNS
SW-620 colon = system: SW-620 colon
786-0 renal = system: 786-0 renal
OVCAR-5 ovarian = system: OVCAR-5 ovarian
OVCAR-3 ovarian = system: OVCAR-3 ovarian
CAKI-1 renal = system: CAKI-1 renal
SF-539 CNS = system: SF-539 CNS
SK-MEL-5 melanoma = system: SK-MEL-5 melanoma
LXFL 529 NSCLC = system: LXFL 529 NSCLC
UACC-62 melanoma = system: UACC-62 melanoma
LOX IMVI melanoma = system: LOX IMVI melanoma
COLO 205 colon = system: COLO 205 colon
KM20L2 colon = system: KM20L2 colon
A498 renal = system: A498 renal
SF-268 CNS = system: SF-268 CNS
SF-295 CNS = system: SF-295 CNS
HCT-116 colon = system: HCT-116 colon
HCC-2998 colon = system: HCC-2998 colon
MOLT-4 leukemia = system: MOLT-4 leukemia
HL-60(TB) leukemia = system: HL-60(TB) leukemia
IGROV1 ovarian = system: IGROV1 ovarian
HOP-92 NSCLC = system: HOP-92 NSCLC
DLD-1 colon = system: DLD-1 colon
TK-10 renal = system: TK-10 renal
OVCAR-4 ovarian = system: OVCAR-4 ovarian
NCI-H460 lung = system: NCI-H460 lung
EKVX NSCLC = system: EKVX NSCLC
DMS 114 small cell lung = system: DMS 114 small cell lung
ACHN renal = system: ACHN renal
DMS 273 small cell lung = system: DMS 273 small cell lung
M19-MEL melanoma = system: M19-MEL melanoma
SNB-78 CNS = system: SNB-78 CNS
NCI-H23 lung = system: NCI-H23 lung
OVCAR-8 ovarian = system: OVCAR-8 ovarian
HCT-15 colon = system: HCT-15 colon
HOP-62 NSCLC = system: HOP-62 NSCLC
SN12C renal = system: SN12C renal
RXF-631 renal = system: RXF-631 renal
SK-OV-3 ovarian = system: SK-OV-3 ovarian
NCI-H522 lung = system: NCI-H522 lung
XF 498 CNS = system: XF 498 CNS
SK-MEL-2 melanoma = system: SK-MEL-2 melanoma
CCRF-CEM leukemia = system: CCRF-CEM leukemia
MALME-3M melanoma = system: MALME-3M melanoma
M14 melanoma = system: M14 melanoma
RPMI-8226 leukemia = system: RPMI-8226 leukemia
K-562 leukemia = system: K-562 leukemia
A549 NSCLC = system: A549 NSCLC
UACC-257 melanoma = system: UACC-257 melanoma
HOP-18 NSCLC = system: HOP-18 NSCLC
UO-31 renal = system: UO-31 renal
SNB-75 CNS = system: SNB-75 CNS
RXF 393 renal = system: RXF 393 renal
SK-MEL-28 melanoma = system: SK-MEL-28 melanoma
SR leukemia = system: SR leukemia

## N#CC(C(=O)CCC(=O)Nc1ccc(Cl)cc1)c1ccc(Cl)cc1 (stereo not drawn)
U251 CNS
  TGI: > 100 µM
KM12 colon
  TGI: > 100 µM
NCI-H226 lung
  TGI: > 100 µM
HT29 colon
  TGI: > 100 µM
SNB-19 CNS
  TGI: > 100 µM
SW-620 colon
  TGI: > 100 µM
786-0 renal
  TGI: > 100 µM
OVCAR-5 ovarian
  TGI: > 100 µM
OVCAR-3 ovarian
  TGI: > 100 µM
CAKI-1 renal
  TGI: > 100 µM
SF-539 CNS
  TGI: > 100 µM
SK-MEL-5 melanoma
  TGI: > 100 µM
LXFL 529 NSCLC
  TGI: > 100 µM
UACC-62 melanoma
  TGI: > 100 µM
LOX IMVI melanoma
  TGI: > 100 µM
COLO 205 colon
  TGI: > 100 µM
KM20L2 colon
  TGI: > 100 µM
A498 renal
  TGI: > 100 µM
SF-268 CNS
  TGI: > 100 µM
SF-295 CNS
  TGI: > 100 µM
HCT-116 colon
  TGI: > 100 µM
HCC-2998 colon
  TGI: > 100 µM
MOLT-4 leukemia
  TGI: > 100 µM
HL-60(TB) leukemia
  TGI: > 100 µM
IGROV1 ovarian
  TGI: > 100 µM
HOP-92 NSCLC
  TGI: > 100 µM
DLD-1 colon
  TGI: > 100 µM
TK-10 renal
  TGI: > 100 µM
OVCAR-4 ovarian
  TGI: > 100 µM
NCI-H460 lung
  TGI: > 100 µM
EKVX NSCLC
  TGI: > 100 µM
DMS 114 small cell lung
  TGI: > 100 µM
ACHN renal
  TGI: > 100 µM
DMS 273 small cell lung
  TGI: > 100 µM
M19-MEL melanoma
  TGI: > 100 µM
SNB-78 CNS
  TGI: > 100 µM
NCI-H23 lung
  TGI: > 100 µM
OVCAR-8 ovarian
  TGI: > 100 µM
HCT-15 colon
  TGI: > 100 µM
HOP-62 NSCLC
  TGI: > 100 µM
SN12C renal
  TGI: > 100 µM
RXF-631 renal
  TGI: > 100 µM
SK-OV-3 ovarian
  TGI: > 100 µM
NCI-H522 lung
  TGI: > 100 µM
XF 498 CNS
  TGI: > 100 µM
SK-MEL-2 melanoma
  TGI: > 100 µM
CCRF-CEM leukemia
  TGI: > 100 µM
MALME-3M melanoma
  TGI: > 100 µM
M14 melanoma
  TGI: > 100 µM
RPMI-8226 leukemia
  TGI: > 100 µM
K-562 leukemia
  TGI: > 100 µM
A549 NSCLC
  TGI: > 100 µM
UACC-257 melanoma
  TGI: > 100 µM
HOP-18 NSCLC
  TGI: > 100 µM
UO-31 renal
  TGI: > 100 µM

## Cc1ccc2nc(Sc3c([N+](=O)[O-])ncn3C)[nH]c2c1
U251 CNS
  TGI: > 100 µM
KM12 colon
  TGI: > 100 µM
NCI-H226 lung
  TGI: 45 µM
SNB-75 CNS
  TGI: 89.3 µM
HT29 colon
  TGI: > 100 µM
SNB-19 CNS
  TGI: > 100 µM
SW-620 colon
  TGI: > 100 µM
786-0 renal
  TGI: > 100 µM
OVCAR-5 ovarian
  TGI: > 100 µM
OVCAR-3 ovarian
  TGI: 56.7 µM
CAKI-1 renal
  TGI: 27.5 µM
SF-539 CNS
  TGI: 36.4 µM
SK-MEL-5 melanoma
  TGI: 33.1 µM
UACC-62 melanoma
  TGI: 35.7 µM
LOX IMVI melanoma
  TGI: > 100 µM
COLO 205 colon
  TGI: 27.8 µM
KM20L2 colon
  TGI: > 100 µM
A498 renal
  TGI: 83.2 µM
SF-268 CNS
  TGI: 83.9 µM
RXF 393 renal
  TGI: 39.5 µM
SF-295 CNS
  TGI: > 100 µM
HCT-116 colon
  TGI: 53.9 µM
HCC-2998 colon
  TGI: 30.6 µM
MOLT-4 leukemia
  TGI: 31.1 µM
IGROV1 ovarian
  TGI: 65.6 µM
HOP-92 NSCLC
  TGI: 41.3 µM
DLD-1 colon
  TGI: 49.8 µM
TK-10 renal
  TGI: > 100 µM
OVCAR-4 ovarian
  TGI: 79.2 µM
NCI-H460 lung
  TGI: > 100 µM
EKVX NSCLC
  TGI: 63.9 µM
DMS 114 small cell lung
  TGI: 28.9 µM
SK-MEL-28 melanoma
  TGI: > 100 µM
ACHN renal
  TGI: > 100 µM
DMS 273 small cell lung
  TGI: 40.1 µM
M19-MEL melanoma
  TGI: 57.2 µM
SNB-78 CNS
  TGI: 76.3 µM
SR leukemia
  TGI: 42.2 µM
NCI-H23 lung
  TGI: 50.5 µM
OVCAR-8 ovarian
  TGI: 41 µM
HCT-15 colon
  TGI: 32.4 µM
HOP-62 NSCLC
  TGI: > 100 µM
SN12C renal
  TGI: 35.8 µM
RXF-631 renal
  TGI: 32.3 µM
SK-OV-3 ovarian
  TGI: > 100 µM
XF 498 CNS
  TGI: 18.9 µM
MALME-3M melanoma
  TGI: 47.4 µM
M14 melanoma
  TGI: 92.5 µM
RPMI-8226 leukemia
  TGI: 78.7 µM
A549 NSCLC
  TGI: > 100 µM
UACC-257 melanoma
  TGI: 38.5 µM
HOP-18 NSCLC
  TGI: > 100 µM
UO-31 renal
  TGI: 88.4 µM
